Experimental findings from PubChem BioAssay AID1645866 (Buhrlage Lab, Dana-Farber Cancer Institute and Novartis …, 2021) are described below.

Activity calls are given as the source filed them.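 The calls were made as follows: active = in confirmatory dose-response testing, peak deubiquitinase inhibition of 30% or more; inactive = the rest.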

Chain of Ubiquitin carboxyl-terminal hydrolase 28 (Homo sapiens) (Q96RU2 whole entry, looked up): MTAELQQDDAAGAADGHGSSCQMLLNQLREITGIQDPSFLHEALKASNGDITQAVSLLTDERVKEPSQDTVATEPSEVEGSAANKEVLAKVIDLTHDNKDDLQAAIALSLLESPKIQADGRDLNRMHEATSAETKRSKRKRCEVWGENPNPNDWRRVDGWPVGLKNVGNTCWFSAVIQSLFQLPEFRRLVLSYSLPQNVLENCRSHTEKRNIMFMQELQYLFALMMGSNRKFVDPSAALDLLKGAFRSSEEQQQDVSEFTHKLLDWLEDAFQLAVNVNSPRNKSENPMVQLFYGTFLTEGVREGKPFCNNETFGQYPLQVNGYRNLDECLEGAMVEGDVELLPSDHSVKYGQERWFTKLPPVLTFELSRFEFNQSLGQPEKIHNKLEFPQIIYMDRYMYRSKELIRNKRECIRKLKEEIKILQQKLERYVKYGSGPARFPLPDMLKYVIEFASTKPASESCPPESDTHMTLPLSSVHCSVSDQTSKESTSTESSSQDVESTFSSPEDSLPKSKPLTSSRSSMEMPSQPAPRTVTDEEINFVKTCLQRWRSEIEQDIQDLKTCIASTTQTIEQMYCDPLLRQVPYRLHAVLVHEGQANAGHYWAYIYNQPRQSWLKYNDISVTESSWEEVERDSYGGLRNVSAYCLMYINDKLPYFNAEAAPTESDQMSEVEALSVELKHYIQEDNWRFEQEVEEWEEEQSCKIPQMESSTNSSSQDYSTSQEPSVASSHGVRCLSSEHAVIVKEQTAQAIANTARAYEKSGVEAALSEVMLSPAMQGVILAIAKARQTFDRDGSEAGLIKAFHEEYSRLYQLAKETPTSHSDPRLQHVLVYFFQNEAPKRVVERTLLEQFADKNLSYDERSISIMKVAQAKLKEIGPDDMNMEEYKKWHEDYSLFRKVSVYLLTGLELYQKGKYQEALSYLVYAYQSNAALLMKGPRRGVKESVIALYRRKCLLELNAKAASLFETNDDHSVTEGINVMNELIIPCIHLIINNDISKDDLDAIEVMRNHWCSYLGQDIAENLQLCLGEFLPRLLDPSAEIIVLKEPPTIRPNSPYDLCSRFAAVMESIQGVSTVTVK

This assay concerns the target Ubiquitin carboxyl-terminal hydrolase 28 (Homo sapiens) (UniProt Q96RU2). Description: Ubiquitin-specific peptidase 28 DUB inhibitors, biochemical concentration-dependence assay, validation of primary screening hits (AID 1645866). As to conditions: purified USP28, ubiquitin-rhodamine fluorescence, 30 min.
By IC50 is commonly meant the concentration that inhibits the measured activity by half. For the compound `COc1cccc(N2C(=O)N(CC(=O)NCc3ccc(Cl)cc3)c3ccccc3S2(=O)=O)c1`, the IC50 was 19.1 µM.

Consider `CC1CC(=O)N(Cc2ccc([N+](=O)[O-])cc2)c2ccccc2S1` (centres undefined), for which the IC50 was 13.3 µM. To `Cc1ccc2nc(CCc3ccc(NS(=O)(=O)c4cccc(Cl)c4C)cc3)[nH]c2c1` belongs 27.1 µM; to `Cc1cc(C)c2nc3c(cc2c1)CN(Cc1ccco1)C(=O)O3`, > 50 µM (inactive); to `Cc1c(CC(=O)Nc2nn[nH]n2)c(=O)oc2cc3c(cc12)CCC1(CCCCC1)O3`, > 50 µM (inactive). In the case of `O=C(Nc1ccc(Cl)cc1)Nc1cccn2ncnc12`, the IC50 was 11.9 µM. For `Fc1ccc(CSc2nnc(-c3ccccn3)n2Cc2ccco2)cc1` the value was 21.9 µM. For `Cc1ccc(C)c(-c2cc3c(=O)n(Cc4noc(CN5CCCCC5)n4)ccn3n2)c1` the value was 4.49 µM.

With `Cc1nn(-c2ccc([N+](=O)[O-])cc2)c(C)c1-c1nc2ccccc2[nH]1`, the IC50 is 21 µM. Consider `O=C(NCc1ccccc1)c1ccc(-c2ccc(N3CCCC3)nn2)cc1`, for which the IC50 is > 50 µM (inactive). In the case of `CCOc1ccc2c(c1)c(=O)c(C(=O)c1ccc(C)cc1)cn2CC(=O)Nc1ccc(OC)c(OC)c1`, the IC50 is 0.686 µM. To `CC(=O)Nc1ccc(S(=O)(=O)N2CCCC(C(=O)Nc3cccc4ccccc34)C2)cc1` (centres undefined) belongs 19.1 µM; to `O=C(Cc1ccccc1F)N1CCC2(CC1)CC1(CO2)Nc2ccccc2-n2cccc21` (centres undefined), > 50 µM (inactive); to `CCCC(=O)Nc1ccc(SCc2nnc(-c3ccccc3)o2)cc1`, 12.7 µM. On to `COc1ccc(CCNC(=O)[C@H](CCSC)NC(=O)N2CCn3c2nc2ccccc23)cc1OC`, for which the IC50 is > 50 µM (inactive).

For the compound `Cc1cccc(NC(=O)Nc2nnc(CC(=O)NCc3ccccc3)s2)c1`, the IC50 is 11.3 µM. For `COc1ccc(NC(=O)CSc2nc(N)c3c4c(sc3n2)COC(C)(C)C4)cc1` the value was 45.9 µM. Regarding `Cc1nc2sc(C(=O)Nc3ccccc3Br)c(N)c2c(C)c1C`, the IC50 is 2.01 µM. Regarding `COc1cccc(CN2CCc3nc4nc(C)ccc4cc3C2)c1`, the IC50 was > 50 µM (inactive). For `O=C(c1cn(-c2cccc(F)c2)nn1)N1CCc2ccccc2C1` the value was 22.8 µM; for `COc1cccc(-c2cc(=O)[nH]c(Nc3nc(C)c4ccccc4n3)n2)c1`, 25.9 µM; for `Cc1ccc(C)c(-n2c(N)c(C(=O)NCCc3ccccc3)c3nc4ccccc4nc32)c1`, > 50 µM (inactive). Consider `O=[N+]([O-])c1ccc(NCc2ccc(-c3cccs3)s2)nc1`, for which the IC50 is 2.19 µM. To `O=C(c1ccnn1-c1ccc2ccc(-c3ccncc3)cn12)N1CCCC1` belongs > 50 µM (inactive); to `Cc1ccc(-n2c(-c3ccccc3)cn3c4c(=O)[nH]c(=O)n(C)c4nc23)cc1Cl`, 0.305 µM; to `CC(C)(C)c1cc(CCC(=O)Nc2c3c(nc4c2CCC4)CCCC3)cc(C(C)(C)C)c1O`, > 50 µM (inactive). For `N#Cc1cccc(NC(=O)Cn2cccc(-c3nc(-c4ccccc4)no3)c2=O)c1` the value was > 50 µM (inactive); for `CC1=C(c2ccc(F)cc2)S(=O)(=O)NC1=NCC(=O)Nc1cccc(F)c1`, 48.7 µM. As for `O=C(NCCc1ccco1)c1ccc(N2CCOc3ccccc32)s1`, the IC50 was 22.4 µM.

As to `CC1CCN(S(=O)(=O)c2ccc3[nH]cc(C(=O)NCc4ccco4)c(=O)c3c2)CC1`, the IC50 is > 50 µM (inactive).

For the compound `CC1Oc2ccccc2C(=O)N(Cc2ccc([N+](=O)[O-])cc2)C1=O` (centres undefined), the IC50 is 12.5 µM. As for `COc1cc(Cl)ccc1Oc1ncnc2sc(C)c(C)c12`, the IC50 was > 50 µM (inactive). For `Cc1ccc(C(=O)Nc2ccc3nccnc3c2)cc1`, the IC50 was 9.87 µM. For `CN(C)CCc1cc2c(c3c1ccc1ccccc13)OCO2` the value was 4.59 µM.

As to `O=C(COc1ccc2oc3c(c2c1)CCCC3)Nc1ccccn1`, the IC50 was 24.9 µM. To `CC(c1ccccc1)c1nc(-c2ccc(=O)[nH]c2)no1` (centres undefined) belongs 3.78 µM; to `CCC(C)NC(=O)Cn1c(=O)n(-c2ccccc2)c(=O)c2ccc(C(=O)NCc3ccco3)cc21` (centres undefined), 37.9 µM.

For the compound `COc1cccc(-n2c(=O)[nH]c3c(C(N)=O)nc(-c4ccc(OCc5ccccc5)cc4)nc32)c1`, the IC50 was > 50 µM (inactive). For `O=C(CSc1nc2ccccc2n1S(=O)(=O)c1ccc(Br)cc1)Nc1ccc([N+](=O)[O-])cc1Cl` the value was 8.65 µM; for `Cc1ccc(NC(=O)Cn2c(Nc3cccc(C)c3)nc(C)cc2=O)cc1`, 25.4 µM. To `Cc1c(-c2nsc(NC(=O)c3ccc(Cl)cc3)n2)nnn1-c1ccccc1F` belongs 5.34 µM. For `COc1ccc(NS(=O)(=O)c2cc(NC(=O)CCc3nc4ccccc4s3)ccc2C)cc1` the value was 24.1 µM; for `O=C(CSc1nnc(CNC(=O)c2ccccc2F)o1)Nc1ccc(OC(F)(F)F)cc1`, 28.9 µM. Consider `O=C1C[C@@H](O)[C@H](O)[C@@]23O[C@@]12C1(Oc2cccc4cccc(c24)O1)[C@@H]1O[C@@H]1[C@@H]3O`, for which the IC50 was 24.3 µM.

Take `Cn1cc2cccc(NC(=O)c3ccc(F)cc3)c2n1`: the IC50 was > 50 µM (inactive).

With `CCOC(=O)c1cnc(C(F)(F)F)nc1Sc1n[nH]c(-c2cccs2)n1`, the IC50 is > 50 µM (inactive).

On to `O=C(CCc1c[nH]c2ccccc12)Nc1ccc(N2CCOCC2)cc1`, for which the IC50 was 24.9 µM. For `CCOc1ccccc1NC(=O)COc1cc(OC)ccc1C(=O)c1ccccc1` the value was 4.45 µM.

For the compound `O=S(=O)(Cc1nnc(-c2ccccc2C(F)(F)F)o1)c1ccc(Cl)cc1`, the IC50 is > 50 µM (inactive). For `CCOC(=O)Nc1ccc(N2CCn3c(nc4ccccc43)C2)cc1OC` the value was > 50 µM (inactive); for `CCCC(=O)N1CCC2(CC1)Nc1ccccc1NC2=O`, > 50 µM (inactive); for `COc1cccc2c1NC(=O)C21CCN(C(=O)Nc2cccc(C)c2)CC1`, 14.6 µM. Regarding `O=C(Nc1cccc(Cl)c1)N1CCN(c2cc(C(F)(F)F)ccn2)CC1`, the IC50 is 25.1 µM.

With `CC1(C)Cc2nc3sc4c(=O)n(CC(=O)NCc5ccccc5)cnc4c3cc2CO1`, the IC50 was 32.9 µM. Consider `CCOc1cc(C2C3=C(CC(C)(C)CC3=O)Nc3onc(C)c32)ccc1O` (centres undefined), for which the IC50 was 37.5 µM.

With `Cn1c(=O)c(C(=O)CN2CCN(c3ccc(O)cc3)CC2)c(N)n(Cc2ccccc2)c1=O`, the IC50 was 49.4 µM. Regarding `CCC(=O)Nc1nc2cc(NC(=O)Nc3cc(C)cc(C)c3)ccc2s1`, the IC50 was 2.97 µM. For `Fc1cccc(-n2cc(-c3noc(-c4ccc[nH]4)n3)nn2)c1`, the IC50 is 27.5 µM. To `CN(C)S(=O)(=O)c1ccc(N2CCCC2)c(C(=O)Nc2ccc(-c3cn4ccsc4n3)cc2)c1` belongs > 50 µM (inactive); to `NC(=O)Cn1c(=O)n(Cc2ccc(C(=O)NC3CCCC3)cc2)c(=O)c2ccccc21`, > 50 µM (inactive). `COC(=O)C1C(c2ccc(Cl)cc2Cl)C2(C(=O)c3ccccc3C2=O)C2C=Cc3ccccc3N12` (centres undefined): the IC50 is > 50 µM (inactive). In the case of `CC1=C(C(=O)Nc2ccccc2C)C(c2ccc(OCc3ccccc3F)cc2)n2ncnc2N1` (centres undefined), the IC50 is 21.6 µM. For the compound `O=C(COC(=O)c1ccc(NS(=O)(=O)c2ccc3c(c2)OCCO3)cc1)NCc1ccc(Cl)cc1`, the IC50 is 6.76 µM. To `O=S(=O)(c1ccccc1)N1CCN2Cc3ccccc3N(Cc3ccccc3)CC2C1` (centres undefined) belongs > 50 µM (inactive).
